Test results: ChEMBL document CHEMBL3763133, “4-Arylbenzenesulfonamides as Human Carbonic Anhydrase Inhibitors (hCAIs): Synthesis by Pd Nanocatalyst-Mediated Suzuki-Miyaura Reaction, Enzyme Inhibition, and X-ray Crystallographic Studies” (J Med Chem, 2016)

What was measured:
Carbonic anhydrase 1 [1] = molecular target: T1, Carbonic anhydrase 1 (Homo sapiens, UniProt P00915); assay: Inhibition of human carbonic anhydrase 1 incubated for 15 mins prior to testing by CO2 hydration-based stopped flow assay
Target sequence in this assay (P00915 whole entry): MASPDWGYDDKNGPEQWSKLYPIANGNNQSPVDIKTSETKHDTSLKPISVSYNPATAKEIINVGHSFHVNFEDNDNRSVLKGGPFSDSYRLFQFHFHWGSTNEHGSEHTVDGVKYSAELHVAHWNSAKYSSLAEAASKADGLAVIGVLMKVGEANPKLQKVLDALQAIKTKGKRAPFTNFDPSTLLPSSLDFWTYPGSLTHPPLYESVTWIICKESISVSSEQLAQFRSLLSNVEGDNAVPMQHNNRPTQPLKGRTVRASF

Carbonic anhydrase 9 [2] = molecular target: T2, Carbonic anhydrase 9 (Homo sapiens, UniProt Q16790); assay: Inhibition of human carbonic anhydrase 9 incubated for 15 mins prior to testing by CO2 hydration-based stopped flow assay
Carbonic anhydrase 2 = Carbonic anhydrase 2 (Homo sapiens, UniProt P00918); assay: Inhibition of human carbonic anhydrase 2 incubated for 15 mins prior to testing by CO2 hydration-based stopped flow assay
Carbonic anhydrase 12 = Carbonic anhydrase 12 (Homo sapiens, UniProt O43570); assay: Inhibition of human carbonic anhydrase 12 incubated for 15 mins prior to testing by CO2 hydration-based stopped flow assay
Carbonic anhydrase 9 [3] = molecular target: T2, Carbonic anhydrase 9; assay: Potency index, ratio of Ki for acetazolamide to Ki for test compound for inhibition of human carbonic anhydrase 9
Carbonic anhydrase 1 [4] = molecular target: T1, Carbonic anhydrase 1; assay: Potency index, ratio of Ki for acetazolamide to Ki for test compound for inhibition of human carbonic anhydrase 1
Target sequence in this assay (P00915 2-261 limits assumed): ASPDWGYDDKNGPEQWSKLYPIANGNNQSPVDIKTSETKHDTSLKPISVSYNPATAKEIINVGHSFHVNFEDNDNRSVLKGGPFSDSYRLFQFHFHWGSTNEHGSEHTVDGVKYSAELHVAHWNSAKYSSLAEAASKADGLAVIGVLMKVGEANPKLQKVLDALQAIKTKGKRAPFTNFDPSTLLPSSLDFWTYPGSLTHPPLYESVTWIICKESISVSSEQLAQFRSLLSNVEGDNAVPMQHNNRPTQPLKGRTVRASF

Carbonic anhydrase 12, sequence (O43570 whole entry): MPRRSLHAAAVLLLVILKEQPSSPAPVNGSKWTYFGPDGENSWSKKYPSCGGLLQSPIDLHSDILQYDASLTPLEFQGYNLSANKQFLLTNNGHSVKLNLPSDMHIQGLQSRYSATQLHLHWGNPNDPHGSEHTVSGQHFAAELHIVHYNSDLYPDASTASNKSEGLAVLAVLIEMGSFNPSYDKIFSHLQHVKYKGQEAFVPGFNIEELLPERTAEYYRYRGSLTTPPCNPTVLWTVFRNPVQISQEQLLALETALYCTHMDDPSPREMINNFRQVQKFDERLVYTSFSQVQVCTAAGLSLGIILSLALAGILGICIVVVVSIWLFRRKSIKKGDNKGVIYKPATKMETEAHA

Row | SMILES | Ki (Carbonic anhydrase 1 [1]) [nM] | Ki (Carbonic anhydrase 9 [2]) [nM] | Ki (Carbonic anhydrase 2) [nM] | Ki (Carbonic anhydrase 12) [nM] | Ratio Ki (Carbonic anhydrase 9 [3]) | Ratio Ki (Carbonic anhydrase 1 [4])
1 | NS(=O)(=O)c1ccc(-c2cccc(-c3ccc(S(N)(=O)=O)cc3)c2)cc1 | > 10000 | 276 | 397 | 55.6 |  | 
2 | NS(=O)(=O)c1ccc(-c2cc3ccccc3[nH]2)cc1 | 656 | 124 | 10.2 | 5.6 |  | 
3 | NS(=O)(=O)c1ccc(-c2cccnc2)cc1 | 2400 | 78.1 | 16.6 | 20.3 |  | 
4 | NS(=O)(=O)c1ccc(-c2cnc3ccccc3c2)cc1 | 35.2 | 0.18 | 2.5 | 760 | 100 | 6
5 | NS(=O)(=O)c1ccc(-c2cc3ccccc3s2)cc1 | 370 | 0.21 | 0.84 | > 10000 | 100 | 
6 | NS(=O)(=O)c1ccc(-c2ccc3ccccc3c2)cc1 | 1000 | 0.22 | 0.69 | > 10000 | 100 | 
7 | NS(=O)(=O)c1ccc(-c2ccc(Cn3cccn3)cc2)cc1 | 6970 | 216 | 11.1 | 38.3 |  | 
8 | NS(=O)(=O)c1ccc(-c2ccc(-c3ccc(S(N)(=O)=O)cc3)cc2)cc1 | > 10000 | 240 | 324 | 4.9 |  | 
9 | CC(C)c1ccccc1-c1ccc(S(N)(=O)=O)cc1 | 146 |  | 0.98 | 0.58 |  | 
10 | NS(=O)(=O)c1ccc(-c2cccc(C=O)c2)cc1 | 1180 |  | 2.1 | 0.58 |  | 
11 | NS(=O)(=O)c1ccc(-c2ccccc2)cc1 | 41.5 | 0.21 | 0.79 | 92.7 | 100 | 6
12 | COc1cc(-c2ccc(S(N)(=O)=O)cc2)cc(OC)c1OC | 9520 | 259 | 19.1 | 32.2 |  | 
13 | Cc1ccccc1-c1ccc(S(N)(=O)=O)cc1 | 3500 |  | 1.2 | 47 |  | 
14 | Nc1cccc(-c2ccc(S(N)(=O)=O)cc2)c1 | 2340 | 126 | 9.3 | 4.3 |  | 
15 | NS(=O)(=O)c1ccc(-c2ccc3c(c2)OCO3)cc1 | > 10000 | 258 | 18 | 5.2 |  | 
16 | COC(=O)c1cccc(-c2ccc(S(N)(=O)=O)cc2)c1 | 6960 | 159 | 14.2 | 19.5 |  | 
17 | NS(=O)(=O)c1ccc(-c2cn(S(=O)(=O)c3ccccc3)c3ccccc23)cc1 | 83.6 | 0.24 | 0.68 | 96.7 | 100 | 
18 | NS(=O)(=O)c1ccc(-c2cc3ccccc3n2S(=O)(=O)c2ccccc2)cc1 | > 10000 | 100 | 11.7 | 33.9 |  | 
19 | NS(=O)(=O)c1ccc(-c2cc3ccccc3o2)cc1 | 185 | 0.37 | 0.7 | > 10000 | 100 | 
20 | N#Cc1ccc(-c2ccc(S(N)(=O)=O)cc2)cc1 | 1340 | 228 | 1.2 | 14.2 |  | 
21 | NS(=O)(=O)c1ccc(-c2ccc3[nH]ccc3c2)cc1 | 24.5 | 0.17 | 0.95 | 65 | 100 | 10
22 | COc1ccc2[nH]c(-c3ccc(S(N)(=O)=O)cc3)cc2c1 | 2640 | 156 | 764 | 415 |  | 
23 | Nc1ccc(-c2ccc(S(N)(=O)=O)cc2)cc1 | 3700 |  | 12.3 | 36.5 |  | 
24 | NS(=O)(=O)c1ccc(-c2ccc(-c3ccc(Br)cc3)cc2)cc1 | > 10000 | 224 | 764 | 54.2 |  | 
